Target: T1, ERR1 (also known as ERR-α or ERR-1) (Homo sapiens, UniProt P11474)
T1 sequence (P11474 193-421 limits assumed): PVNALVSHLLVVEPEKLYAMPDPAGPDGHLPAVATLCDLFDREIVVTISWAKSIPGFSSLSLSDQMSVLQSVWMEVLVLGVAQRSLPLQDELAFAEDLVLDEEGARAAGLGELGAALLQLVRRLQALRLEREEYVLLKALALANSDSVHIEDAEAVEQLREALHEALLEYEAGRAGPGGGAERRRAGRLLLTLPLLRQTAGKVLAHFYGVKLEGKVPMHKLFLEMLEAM
Experiment: TR-FRET assay (disruption of co-activator peptide binding)
Format: biochemical
Conditions: 6His-tagged ERR1 LBD, GST-hSRC2 co-activator polypeptide; average of 3 independent experiments
Summary of the method: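 His6-ERR1 LBD (6 nM) with GST-SRC-2 peptide (6 nM), anti-GST Eu cryptate (30 nM) and anti-His XL665 (7.5 nM) in Tris pH 8/KCl/DTT/BSA buffer, equilibrated 4-18 h at 25 °C. Ex 340, em 615/665 nm; hyperbolic dose-response fit, mean of 3 experiments.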

SMILES | EC50
CN1CCN(C2=NC(=O)/C(=C/c3ccc4c(cnn4Cc4ccc(C(F)(F)F)cc4C(F)(F)F)c3)S2)CC1 [Compound 2, 5-[1-(2,4-Bis-trifluoromethyl-benzyl)-1H-indazol-5-ylmethylene]-2-(4-methyl-piperazin-1-yl)-thiazol-4-one] | 7.2 nM
CS(=O)(=O)c1ccc(Cn2ncc3cc(/C=C4\SC(N5CCNC(=O)C5)=NC4=O)ccc32)c(Cl)c1 [Compound 18, 4-{5-[1-(2-Chloro-4-methanesulfonyl-benzyl)-1H-indazol-5-ylmethylene]-4-oxo-4,5-dihydro-thiazol-2-yl}-piperazin-2-one] | > 4000 nM
CN1CCN(C2=NC(=O)/C(=C/c3ccc4c(cnn4Cc4ccc(OS(C)(=O)=O)cc4C(F)(F)F)c3)S2)CC1 [Compound 23, Methanesulfonic acid 4-{5-[2-(4-methyl-piperazin-1-yl)-4-oxo-4H-thiazol-5-ylidenemethyl]-indazol-1-ylmethyl}-3-trifluoromethyl-phenyl ester] | 10.4 nM
N#Cc1ccc(Cn2ncc3cc(/C=C4\SC(N5CCN(CCO)CC5)=NC4=O)ccc32)c(C(F)(F)F)c1 [Compound 9, 4-(5-{2-[4-(2-Hydroxy-ethyl)-piperazin-1-yl]-4-oxo-4H-thiazol-5-ylidenemethyl}-indazol-1-ylmethyl)-3-trifluoromethyl-benzonitrile] | 57.5 nM
C[C@@H]1CN(C2=NC(=O)/C(=C/c3ccc4c(cnn4Cc4ccc(C(F)(F)F)cc4C(F)(F)F)c3)S2)C[C@H](C)N1C [Example 239, 5-({1-[2,4-Bis(trifluoromethyl)benzyl]-1H-indazol-5-yl}methylidene)-2-((3R,5S)-3,4,5-trimethylpiperazin-1-yl)-1,3-thiazol-4(5H)-one] | 18 nM
CN1CCCN(C2=NC(=O)/C(=C/c3ccc4c(cnn4Cc4ccc(C(F)(F)F)cc4C(F)(F)F)c3)S2)CC1 [Example 42, 5-[1-(2,4-Bis-trifluoromethyl-benzyl)-1H-indazol-5-ylmethylene]-2-(4-methyl-[1,4]diazepan-1-yl)-thiazol-4-one] | 4.2 nM
CN1C2CCC1CN(C1=NC(=O)/C(=C/c3ccc4c(cnn4Cc4ccc(Cl)cc4C(F)(F)F)c3)S1)C2 [Example 101, 5-[1-(4-Chloro-2-trifluoromethyl-benzyl)-1H-indazol-5-ylmethylene]-2-(8-methyl-3,8-diaza-bicyclo[3.2.1]oct-3-yl)-thiazol-4-one] | 21.4 nM
Cc1nn(Cc2ccc(Cl)cc2C(F)(F)F)c2ccc(/C=C3\SC(N4CCO[C@H](CO)C4)=NC3=O)cc12 [Example 181, 5-[1-(4-Chloro-2-trifluoromethyl-benzyl)-3-methyl-1H-indazol-5-ylmethylene]-2-(2-(S)-hydroxymethyl-morpholin-4-yl)-thiazol-4-one] | 16 nM
O=C1N=C(N2CCNC[C@@H]2C(=O)O)S/C1=C\c1ccc2c(cnn2Cc2ccc(C(F)(F)F)cc2C(F)(F)F)c1 [Example 47, 1-{5-[1-(2,4-Bis-trifluoromethyl-benzyl)-1H-indazol-5-ylmethylene]-4-oxo-4,5-dihydro-thiazol-2-yl}piperazine-2-(R)-carboxylic acid] | 8.2 nM
Cc1nnc(C)n1C1CCN(C2=NC(=O)/C(=C/c3ccc4c(cnn4Cc4ccc(Cl)cc4C(F)(F)F)c3)S2)CC1 [Example 147, 5-[1-(4-Chloro-2-trifluoromethyl-benzyl)-1H-indazol-5-ylmethylene]-2-[4-(3,5-dimethyl-[1,2,4]triazol-4-yl)-piperidin-1-yl]-thiazol-4-one] | 11 nM
CCNC(=O)NC1CCN(C2=NC(=O)/C(=C/c3ccc4c(cnn4Cc4ccc(C(F)(F)F)cc4C(F)(F)F)c3)S2)CC1 [Example 160, 1-(1-{5-[1-(2,4-Bis-trifluoromethyl-benzyl)-1H-indazol-5-ylmethylene]-4-oxo-4,5-dihydro-thiazol-2-yl}-piperidin-4-yl)-3-ethyl-urea] | 22 nM
COC(=O)CCNC(=O)C1CN(C2=NC(=O)/C(=C/c3ccc4c(cnn4Cc4ccc(C(F)(F)F)cc4C(F)(F)F)c3)S2)C1 [Example 153, 3-[(1-{5-[1-(2,4-Bis-trifluoromethyl-benzyl)-1H-indazol-5-ylmethylene]-4-oxo-4,5-dihydro-thiazol-2-yl}-azetidine-3-carbonyl)-amino]-propionic acid methyl ester] | 44 nM
O=C1N=C(N2CCC(C(=O)NS(=O)(=O)N3CCCC3)CC2)S/C1=C\c1ccc2c(cnn2Cc2ccc(C(F)(F)F)cc2C(F)(F)F)c1 [Example 173, Pyrrolidine-1-sulfonic acid (1-{5-[1-(2,4-bis-trifluoromethyl-benzyl)-1H-indazol-5-ylmethylene]-4-oxo-4,5-dihydro-thiazol-2-yl}-piperidine-4-carbonyl)-amide] | 71 nM
O=C(O)CN1CCN(C2=NC(=O)/C(=C/c3ccc4c(cnn4Cc4ccc(C(F)(F)F)cc4C(F)(F)F)c3)S2)CC1 [Example 119] | 14 nM
COC[C@@H]1CN(C2=NC(=O)/C(=C/c3ccc4c(cnn4Cc4ccc(C(F)(F)F)cc4C(F)(F)F)c3)S2)CCO1 [Example 234, 5-({1-[2,4-Bis(trifluoromethyl)benzyl]-1H-indazol-5-yl}methylidene)-2-[2-(S)-(methoxymethyl)morpholin-4-yl]-1,3-thiazol-4(5H)-one] | 16 nM

Continued, values first:

EC50 | SMILES
19 nM | O=C1N=C(N2CCC(N3CCCC(O)C3)CC2)S/C1=C\c1ccc2c(cnn2Cc2ccc(Cl)cc2C(F)(F)F)c1 (stereo not shown) [Example 166, 5-[1-(4-Chloro-2-trifluoromethyl-benzyl)-1H-indazol-5-ylmethylene]-2-(3-hydroxy-[1,4′]bipiperidinyl-1′-yl)-thiazol-4-one]
8.4 nM | CN[C@H]1CCN(C2=NC(=O)/C(=C/c3ccc4c(cnn4Cc4ccc(Cl)cc4C(F)(F)F)c3)S2)C1 (stereo in doubt) [Example 115, 5-[1-(4-Chloro-2-trifluoromethyl-benzyl)-1H-indazol-5-ylmethylene]-2-(3-methylamino-pyrrolidin-1-yl)-thiazol-4-one]
8.7 nM | COCC(=O)N1CCN(C2=NC(=O)/C(=C/c3ccc4c(cnn4Cc4ccc(Cl)cc4C(F)(F)F)c3)S2)CC1 [Example 91, 5-[1-(4-Chloro-2-trifluoromethyl-benzyl)-1H-indazol-5-ylmethylene]-2-[4-(2-methoxy-acetyl)-piperazin-1-yl]-thiazol-4-one]
52 nM | O=C1N=C(N2CCCN(CC(F)(F)F)CC2)S/C1=C\c1ccc2c(cnn2Cc2ccc(Cl)cc2C(F)(F)F)c1 [Example 135, 5-[1-(4-Chloro-2-trifluoromethyl-benzyl)-1H-indazol-5-ylmethylene]-2-[4-(2,2,2-trifluoro-ethyl)-[1,4]diazepan-1-yl]-thiazol-4-one]
2.8 nM | O=C1N=C(N2C[C@@H](O)[C@H](O)C2)S/C1=C\c1ccc2c(cnn2Cc2ccc(Cl)cc2C(F)(F)F)c1 [Example 99, 5-[1-(4-Chloro-2-trifluoromethyl-benzyl)-1H-indazol-5-ylmethylene]-2-(3R,4R-dihydroxy-pyrrolidin-1-yl)-thiazol-4-one]
7 nM | CN1CCN(C2=NC(=O)/C(=C/c3ccc4c(cnn4Cc4ccc(Cl)cc4C(F)(F)F)c3)S2)CC1 [Compound 8, 5-[1-(4-Chloro-2-trifluoromethyl-benzyl)-1H-indazol-5-ylmethylene]-2-(4-methyl-piperazin-1-yl)-thiazol-4-one]
49 nM | CC[C@H]1CN(C)CCN1C1=NC(=O)/C(=C/c2ccc3c(cnn3Cc3ccc(Cl)cc3C(F)(F)F)c2)S1 [Example 256, 5-({1-[4-Chloro-2-(trifluoromethyl)benzyl]-1H-indazol-5-yl}methylidene)-2-((2S)-2-ethyl-4-methylpiperazin-1-yl)-1,3-thiazol-4(5H)-one]
26 nM | CC(C)(C)NC(=O)[C@@H]1CN(C2=NC(=O)/C(=C/c3ccc4c(cnn4Cc4ccc(Cl)cc4C(F)(F)F)c3)S2)CCN1 [Example 228, (2S)—N-tert-Butyl-4-[5-({1-[4-chloro-2-(trifluoromethyl)benzyl]-1H-indazol-5-yl}methylidene)-4-oxo-4,5-dihydro-1,3-thiazol-2-yl]piperazine-2-carboxamide]
6 nM | O=C1N=C(N2CCO[C@@H](CO)C2)S/C1=C\c1ccc2c(cnn2Cc2ccc(Br)cc2C(F)(F)F)c1 [Example 237]
14.3 nM | O=C1N=C(N2CCC[C@H](C(=O)O)C2)S/C1=C\c1ccc2c(cnn2Cc2ccc(Cl)cc2C(F)(F)F)c1 [Example 48, 1-{5-[1-(4-Chloro-2-trifluoromethyl-benzyl)-1H-indazol-5-ylmethylene]-4-oxo-4,5-dihydro-thiazol-2-yl}piperidine-3-(S)-carboxylic acid]
29 nM | CCOC(=O)CN1CCN(C2=NC(=O)/C(=C/c3ccc4c(cnn4Cc4ccc(Cl)cc4C(F)(F)F)c3)S2)CC1 [Example 127]
27 nM | O=C1N=C(N2CCC[C@@H]2C(=O)O)S/C1=C\c1ccc2c(cnn2Cc2ccc(Cl)cc2C(F)(F)F)c1 [Example 46, 1-{5-[1-(4-Chloro-2-trifluoromethyl-benzyl)-1H-indazol-5-ylmethylene]-4-oxo-4,5-dihydro-thiazol-2-yl}-pyrrolidine-2-(R)-carboxylic acid]
34 nM | O=C1N=C(N2CCCN(C(=O)OCC(F)(F)F)CC2)S/C1=C\c1ccc2c(cnn2Cc2ccc(Cl)cc2C(F)(F)F)c1 [Example 136, 4-{5-[1-(4-Chloro-2-trifluoromethyl-benzyl)-1H-indazol-5-ylmethylene]-4-oxo-4,5-dihydro-thiazol-2-yl}[1,4]diazepane-1-carboxylic acid 2,2,2-trifluoro-ethyl ester]
